The results in this text go back to patent publication US20220241354A1, “COMPOSITION” (MORINAGA MILK INDUSTRY CO., LTD., priority 2019, published 2022).

Assay [1] concerns Bifidobacterium breve M-16V. The assay can be described thus: Growth promoting effect on Bifidobacterium breve M-16V (turbidity at 600 nm after anaerobic culture). Type of assay: cell-based. To be noted: 2′-FL 1.000 mass %, lactoferrin 0.000 mg/mL; glucose-free MRS, 37° C., 24 hours, n = 4. The method, then:
DifcoMRS (BD) was dissolved in purified water as described in a package insert and sterilized at 115° C. for 15 minutes. L-Cysteine hydrochloride (Wako) was dissolved in purified water, filtered and sterilized, and was aseptically added to MRS medium cooled to room temperature after sterilization to have a final concentration of 0.05% by mass.
A reagent was dissolved in purified water with the composition shown in Table 1 and sterilized at 115° C. for 15 minutes. L-Cysteine hydrochloride (Wako) was dissolved in purified water, filtered and sterilized, and was aseptically added to MRS medium cooled to room temperature after sterilization to have a final concentration of 0.05% by mass.
Human milk oligosaccharide (2′-fucosyllactose (2′-FL) (Carbosynth)) and lactoferrin (produced by Morinaga Milk Industry Co., Ltd., iron content 15.8 mg/100 g) were dissolved in purified water, respectively. They were filtered and sterilized after dissolution.
150 μL of a pre-culture solution of Bifidobacterium breve M-16V was added to 3 mL of MRS medium prepared in (1) (i), and was anaerobically cultured at 37° C. for 16 hours. […]
(§1) Then, the cells were anaerobically cultured at 37° C. for 24 hours. After culturing, turbidity was measured at a wavelength of 600 nm using a microplate reader (Corona Electric) to evaluate the growth of bifidobacteria.

The subject of assay [2] is Bifidobacterium infantis M-63. The assay can be described thus: Growth promoting effect on Bifidobacterium infantis M-63 (turbidity at 600 nm). Format: cell-based. To be noted: 2′-FL 1.000 mass %, lactoferrin 0.000 mg/mL; 37° C., 24 hours, n = 12. As to the method:
150 μL of a pre-culture solution of Bifidobacterium breve M-16V was added to 3 mL of MRS medium prepared in (1) (i), and was anaerobically cultured at 37° C. for 16 hours. After culturing, the cells were separated from the culture solution by centrifuging at 1500×g for 5 minutes. The culture solution was removed, and the cells were resuspended in 3 mL of glucose-free MRS medium prepared in (1) (ii).
The pre-culture solution prepared in (2) was added to the glucose-free MRS medium prepared in (1) (ii) to have a final concentration of 1 v/v %. Further, the 2′-fucosyllactose (2′-FL) solution and the lactoferrin solution prepared in (1) (iii) were respectively added to have the final concentrations shown in Table 2, and were dispensed into a 96-well plate at 200 μL/well.
as §1
The same operation as in Example 1 was carried out except that the bifidobacteria were replaced with Bifidobacterium infantis M-63, and the growth was evaluated.

2′-fucosyllactose [2′-FL]: the OD600 is 0.076 in assay [1] and 0.440 in assay [2].
